Each structure is given as a SMILES string. pIC50: −log10 of the molar value. Activity calls are given as the source filed them. The rule behind the calls is not given here.

The target of experiment [1] is T1, M-phase inducer phosphatase 2 (Homo sapiens) (UniProt P30305).
T1 sequence (whole entry): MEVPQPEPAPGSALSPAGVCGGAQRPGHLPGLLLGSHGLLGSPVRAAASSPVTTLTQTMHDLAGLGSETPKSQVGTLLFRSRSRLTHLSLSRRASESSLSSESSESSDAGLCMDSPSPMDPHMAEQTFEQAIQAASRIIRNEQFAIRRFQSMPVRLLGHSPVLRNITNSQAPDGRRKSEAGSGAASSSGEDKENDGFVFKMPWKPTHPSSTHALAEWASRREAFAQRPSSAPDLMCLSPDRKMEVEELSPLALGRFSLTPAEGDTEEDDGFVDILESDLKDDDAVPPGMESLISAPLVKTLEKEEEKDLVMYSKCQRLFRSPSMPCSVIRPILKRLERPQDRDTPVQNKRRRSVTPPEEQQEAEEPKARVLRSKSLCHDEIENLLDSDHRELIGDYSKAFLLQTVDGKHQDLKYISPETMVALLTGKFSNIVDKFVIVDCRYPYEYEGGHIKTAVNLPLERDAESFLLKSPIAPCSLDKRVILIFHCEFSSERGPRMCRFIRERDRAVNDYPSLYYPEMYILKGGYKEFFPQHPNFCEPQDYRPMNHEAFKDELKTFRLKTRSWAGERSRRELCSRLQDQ
Briefly: Inhibition of Cdc25B (unknown origin) at 5 ug/ml.

Experiment [2] has as its target T2, Tyrosine-protein phosphatase non-receptor type 1 (Homo sapiens) (UniProt P18031).
T2 sequence (whole entry): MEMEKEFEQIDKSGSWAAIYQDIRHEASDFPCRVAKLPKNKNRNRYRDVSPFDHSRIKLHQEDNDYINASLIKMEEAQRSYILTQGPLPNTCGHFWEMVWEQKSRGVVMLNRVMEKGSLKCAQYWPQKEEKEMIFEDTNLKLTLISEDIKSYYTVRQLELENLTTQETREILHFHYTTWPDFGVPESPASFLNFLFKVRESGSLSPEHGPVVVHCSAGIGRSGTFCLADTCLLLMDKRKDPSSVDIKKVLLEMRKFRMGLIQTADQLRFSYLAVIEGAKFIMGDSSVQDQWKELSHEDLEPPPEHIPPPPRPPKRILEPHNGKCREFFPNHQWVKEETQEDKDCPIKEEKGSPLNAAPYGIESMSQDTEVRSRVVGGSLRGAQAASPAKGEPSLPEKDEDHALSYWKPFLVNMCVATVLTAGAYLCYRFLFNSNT
The experiment can be described thus: Inhibition of PTP1B (unknown origin) at 5 ug/ml.

The target in experiment [3] is T3, M-phase inducer phosphatase 2 (Homo sapiens, UniProt P30305).
T3 sequence (P30305 whole entry): T1 sequence (whole entry)
The experiment can be described thus: Inhibition of Cdc25B (unknown origin).

Experiment [4] concerns the target T4, Tyrosine-protein phosphatase non-receptor type 2 (Homo sapiens, UniProt P17706).
T4 sequence (P17706 whole entry): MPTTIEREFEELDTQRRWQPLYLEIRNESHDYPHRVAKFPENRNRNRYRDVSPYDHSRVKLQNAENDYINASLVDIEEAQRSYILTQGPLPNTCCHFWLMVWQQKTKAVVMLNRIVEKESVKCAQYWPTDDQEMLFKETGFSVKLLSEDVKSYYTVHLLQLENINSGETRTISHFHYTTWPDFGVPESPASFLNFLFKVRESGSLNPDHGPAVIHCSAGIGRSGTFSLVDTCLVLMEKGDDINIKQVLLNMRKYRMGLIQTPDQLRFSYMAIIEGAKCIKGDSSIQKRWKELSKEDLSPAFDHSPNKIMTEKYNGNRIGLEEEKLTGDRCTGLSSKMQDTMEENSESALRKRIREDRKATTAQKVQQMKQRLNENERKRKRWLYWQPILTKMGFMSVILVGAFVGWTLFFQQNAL
The experiment can be described thus: Inhibition of TCPTP (unknown origin).

Experiment [5] addresses Tyrosine-protein phosphatase non-receptor type 6 (Homo sapiens, UniProt P29350). The experiment can be described thus: Inhibition of SHP1 (unknown origin).
Experiment [6] has as its target T5, Tyrosine-protein phosphatase non-receptor type 11 (Homo sapiens, UniProt Q06124).
T5 sequence (Q06124 whole entry): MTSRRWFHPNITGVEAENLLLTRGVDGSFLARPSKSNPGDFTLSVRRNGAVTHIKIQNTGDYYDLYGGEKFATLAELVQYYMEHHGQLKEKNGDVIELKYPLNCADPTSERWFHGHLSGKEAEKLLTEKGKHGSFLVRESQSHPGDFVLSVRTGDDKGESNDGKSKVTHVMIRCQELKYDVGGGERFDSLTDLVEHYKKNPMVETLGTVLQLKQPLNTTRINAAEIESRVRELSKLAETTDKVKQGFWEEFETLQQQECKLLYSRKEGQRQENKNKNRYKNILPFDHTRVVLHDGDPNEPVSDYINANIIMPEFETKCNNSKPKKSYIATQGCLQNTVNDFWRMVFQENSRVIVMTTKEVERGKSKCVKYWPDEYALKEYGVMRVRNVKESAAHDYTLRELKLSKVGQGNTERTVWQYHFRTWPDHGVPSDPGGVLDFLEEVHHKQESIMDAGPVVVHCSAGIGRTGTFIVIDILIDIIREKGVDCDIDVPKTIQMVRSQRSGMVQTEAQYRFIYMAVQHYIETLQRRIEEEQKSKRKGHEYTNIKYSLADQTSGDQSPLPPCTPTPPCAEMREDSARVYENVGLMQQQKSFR
The experiment can be described thus: Inhibition of SHP2 (unknown origin).

Experiment [7] concerns the target Receptor-type tyrosine-protein phosphatase F (Homo sapiens, UniProt P10586). Briefly: Inhibition of LAR (unknown origin).
The target in experiment [8] is T6, Tyrosine-protein phosphatase non-receptor type 1 (Homo sapiens, UniProt P18031).
T6 sequence (P18031 whole entry): T2 sequence (whole entry)
Briefly: Inhibition of PTP1B (unknown origin).

Experiment [9] has as its target T2, Tyrosine-protein phosphatase non-receptor type 1 (Homo sapiens). Briefly: Mixed inhibition of PTP1B (unknown origin) by Lineweaver-Burk plot.

Chain of Receptor-type tyrosine-protein phosphatase F (P10586 whole entry): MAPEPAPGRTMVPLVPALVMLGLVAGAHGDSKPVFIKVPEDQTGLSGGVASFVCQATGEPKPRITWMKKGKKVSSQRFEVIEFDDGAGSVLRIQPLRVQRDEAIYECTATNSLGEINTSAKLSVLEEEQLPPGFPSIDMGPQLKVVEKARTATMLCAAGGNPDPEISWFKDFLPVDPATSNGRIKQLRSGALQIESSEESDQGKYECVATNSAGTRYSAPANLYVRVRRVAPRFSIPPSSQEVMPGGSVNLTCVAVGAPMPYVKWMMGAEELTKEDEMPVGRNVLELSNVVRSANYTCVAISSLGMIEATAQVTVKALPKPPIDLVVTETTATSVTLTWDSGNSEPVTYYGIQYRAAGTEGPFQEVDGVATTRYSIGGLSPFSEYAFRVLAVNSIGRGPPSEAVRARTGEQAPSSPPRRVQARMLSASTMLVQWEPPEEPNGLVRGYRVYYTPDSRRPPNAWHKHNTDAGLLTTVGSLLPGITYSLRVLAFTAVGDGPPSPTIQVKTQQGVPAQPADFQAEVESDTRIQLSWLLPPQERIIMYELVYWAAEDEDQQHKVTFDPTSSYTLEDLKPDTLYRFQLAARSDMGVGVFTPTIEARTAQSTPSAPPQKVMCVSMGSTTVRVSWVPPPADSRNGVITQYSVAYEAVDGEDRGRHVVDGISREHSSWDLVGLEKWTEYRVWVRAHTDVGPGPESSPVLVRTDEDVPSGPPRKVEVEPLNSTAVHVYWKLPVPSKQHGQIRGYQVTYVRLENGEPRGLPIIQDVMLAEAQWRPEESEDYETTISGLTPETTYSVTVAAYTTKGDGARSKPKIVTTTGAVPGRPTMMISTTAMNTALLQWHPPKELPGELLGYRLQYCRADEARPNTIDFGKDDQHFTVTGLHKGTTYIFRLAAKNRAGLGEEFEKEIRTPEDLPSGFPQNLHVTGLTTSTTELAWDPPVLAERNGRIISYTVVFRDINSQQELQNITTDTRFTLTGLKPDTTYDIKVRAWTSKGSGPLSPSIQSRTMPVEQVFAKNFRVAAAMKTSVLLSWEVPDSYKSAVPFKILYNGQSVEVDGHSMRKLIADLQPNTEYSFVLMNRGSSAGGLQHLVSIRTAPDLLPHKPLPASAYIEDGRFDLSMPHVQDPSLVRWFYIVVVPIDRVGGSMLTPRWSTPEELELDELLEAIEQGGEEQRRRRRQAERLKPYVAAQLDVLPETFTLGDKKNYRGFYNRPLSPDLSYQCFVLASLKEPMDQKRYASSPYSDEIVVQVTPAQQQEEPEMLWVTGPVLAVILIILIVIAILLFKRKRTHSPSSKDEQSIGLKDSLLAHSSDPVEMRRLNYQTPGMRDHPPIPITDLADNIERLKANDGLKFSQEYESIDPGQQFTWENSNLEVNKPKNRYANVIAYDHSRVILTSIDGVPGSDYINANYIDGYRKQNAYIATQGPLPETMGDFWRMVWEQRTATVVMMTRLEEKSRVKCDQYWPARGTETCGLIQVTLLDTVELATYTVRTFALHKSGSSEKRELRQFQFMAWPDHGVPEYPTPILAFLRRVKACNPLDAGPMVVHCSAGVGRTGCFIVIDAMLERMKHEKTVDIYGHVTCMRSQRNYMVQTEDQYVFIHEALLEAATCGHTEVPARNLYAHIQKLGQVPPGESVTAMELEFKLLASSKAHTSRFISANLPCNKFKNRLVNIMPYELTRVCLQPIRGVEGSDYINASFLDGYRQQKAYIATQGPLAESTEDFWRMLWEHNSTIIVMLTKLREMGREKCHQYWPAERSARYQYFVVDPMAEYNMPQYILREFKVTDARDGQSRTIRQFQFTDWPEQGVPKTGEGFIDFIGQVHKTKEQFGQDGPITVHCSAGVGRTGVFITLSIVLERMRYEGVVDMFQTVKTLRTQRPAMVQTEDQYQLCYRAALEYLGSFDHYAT
Chain of Tyrosine-protein phosphatase non-receptor type 6 (P29350 whole entry): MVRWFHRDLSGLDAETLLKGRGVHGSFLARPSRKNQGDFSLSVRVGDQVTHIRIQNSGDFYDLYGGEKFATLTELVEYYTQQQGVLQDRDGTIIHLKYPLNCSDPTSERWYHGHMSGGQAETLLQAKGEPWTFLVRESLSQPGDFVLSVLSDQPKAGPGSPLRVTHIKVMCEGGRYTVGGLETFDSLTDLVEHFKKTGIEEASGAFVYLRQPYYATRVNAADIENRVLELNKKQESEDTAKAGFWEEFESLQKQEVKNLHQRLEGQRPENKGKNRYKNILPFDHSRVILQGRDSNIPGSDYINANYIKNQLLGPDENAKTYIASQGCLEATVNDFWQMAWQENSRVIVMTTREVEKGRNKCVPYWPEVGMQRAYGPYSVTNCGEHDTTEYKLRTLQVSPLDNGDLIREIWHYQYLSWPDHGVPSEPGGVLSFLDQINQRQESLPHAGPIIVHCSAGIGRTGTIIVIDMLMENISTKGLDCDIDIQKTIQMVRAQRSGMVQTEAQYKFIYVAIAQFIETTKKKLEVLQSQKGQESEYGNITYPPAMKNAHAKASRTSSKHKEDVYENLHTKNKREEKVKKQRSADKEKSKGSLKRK

On to `O=C(Nc1nnc(-c2ccc(Oc3ccc([N+](=O)[O-])cc3[N+](=O)[O-])cc2)s1)c1cccc([N+](=O)[O-])c1`, for which the inhibition (commonly the change of the read-out against control, counted positive when it falls) amounted to 99.2% in experiment [1] and 85.6% in experiment [2]. Further, the pIC50 – broadly, the negative decadic logarithm of the IC50, by convention in mol/L – in experiment [3] is 5.60; in experiment [8], 5.57. Besides, the IC50 entry in [4], in [5], in experiment [6] and in experiment [7] was “Not Active” each time. Moreover, the inhibition entry in experiment [9] is “Active”.

The record behind these values is ChEMBL document CHEMBL3352415, “Synthesis and biological evaluation of novel thiadiazole amides as potent Cdc25B and PTP1B inhibitors” (Bioorg Med Chem Lett, 2014).
